Measurements published in patent publication US10308644B2, “Heterocyclic compounds as immunomodulators” (Incyte Corporation, priority 2016, dated 2019).

molecular target: PD-1/PD-L1 (Homo sapiens (Human), UniProt Q9NZQ7); assay: PD-1/PD-L1 Homogeneous Time-Resolved Fluorescence (HTRF) Binding Assay; conditions: recombinant human PD-1 (3 nM) and PD-L1 (10 nM), 25° C., PBS pH 7.4
Method in brief: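 Fc-tagged human PD-1 (25-167, 3 nM) and His-tagged PD-L1 (19-238, 10 nM) preincubated with inhibitor 40 min in PBS pH 7.4, 0.05% Tween-20, 0.1% BSA, 1% DMSO, 25 °C. Binding detected by HTRF (Eu anti-IgG/APC anti-His, 665/620 nm) after 60 min; IC50 from percent control activity.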

Chain of PD-1/PD-L1 (Q9NZQ7 19-238): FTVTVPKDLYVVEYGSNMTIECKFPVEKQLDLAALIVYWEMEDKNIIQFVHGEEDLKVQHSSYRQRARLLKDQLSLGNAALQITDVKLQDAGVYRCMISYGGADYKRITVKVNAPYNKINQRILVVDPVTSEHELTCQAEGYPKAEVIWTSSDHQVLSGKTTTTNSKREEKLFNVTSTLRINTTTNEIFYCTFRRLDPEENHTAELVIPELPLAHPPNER

IC50, ≤ 10 nM:
Cc1c(NC(=O)c2nc3c(n2C)CCN(C)C3)cccc1-c1cccc(-c2nc3cc(CN4CC[C@@](C)(C(=O)O)C4)cc(C#N)c3o2)c1C [Example 260, (R)-1-((7-cyano-2-(3′-(1,5-dimethyl-4,5,6,7-tetrahydro-1H-imidazo[4,5-c]pyridine-2-carboxamido)-2,2′-dimethylbiphenyl-3-yl)benzo[d]oxazol-5-yl)methyl)-3-methylpyrrolidine-3-carboxylic acid]
Cc1c(Nc2nccc3cc(CNC[C@@H](C)O)cnc23)cccc1-c1cccc(-c2nc3cc(CN4CC[C@@H](C(=O)O)C4)cc(C#N)c3o2)c1C [Example 147, (R)-1-((7-cyano-2-(3′-((3-((((R)-2-hydroxypropyl)amino)methyl)-1,7-naphthyridin-8-yl)amino)-2,2′-dimethyl-[1,1′-biphenyl]-3-yl)benzo[d]oxazol-5-yl)methyl)pyrrolidine-3-carboxylic acid]
Cc1c(-c2nc3cc(CN4CC[C@@H](C(=O)O)C4)cc(C#N)c3o2)cccc1-c1cccc(-n2cc3c(n2)CN(C(C)C)CC3)c1Cl [Example 87, (R)-1-((2-(2′-chloro-3′-(6-isopropyl-4,5,6,7-tetrahydro-2H-pyrazolo[3,4-c]pyridin-2-yl)-2-methylbiphenyl-3-yl)-7-cyanobenzo[d]oxazol-5-yl)methyl)pyrrolidine-3-carboxylic acid]
Cc1c(-c2nc3cc(CN4CCCC4)cc(C#N)c3o2)cccc1-c1cccc(NC(=O)c2nc3c(n2C)CCN(C[C@H]2CC[C@H](C(=O)O)CC2)C3)c1Cl [Example 271, trans-4-((2-(2-chloro-3′-(7-cyano-5-(pyrrolidin-1-ylmethyl)benzo[d]oxazol-2-yl)-2′-methylbiphenyl-3-ylcarbamoyl)-1-methyl-6,7-dihydro-1H-imidazo[4,5-c]pyridin-5(4H)-yl)methyl)cyclohexanecarboxylic acid]
Cc1c(-c2nc3cc(CN4CC[C@@H](O)C4)cc(Cl)c3o2)cccc1-c1cccc(NC(=O)c2cc(CN3CC[C@@H](C(=O)O)C3)cn(C)c2=O)c1Cl [Example 151, (R)-1-((5-(2-chloro-3′-(7-chloro-5-(((R)-3-hydroxypyrrolidin-1-yl)methyl)benzo[d]oxazol-2-yl)-2′-methylbiphenyl-3-ylcarbamoyl)-1-methyl-6-oxo-1,6-dihydropyridin-3-yl)methyl)pyrrolidine-3-carboxylic acid]
Cc1c(Nc2nccc(CN3CC[C@@H](O)C3)c2F)cccc1-c1cccc(-c2nc3cc(CN4CC[C@@H](C(=O)O)C4)cc(C#N)c3o2)c1C [Example 102, (R)-1-((7-cyano-2-(3′-(3-fluoro-4-(((R)-3-hydroxypyrrolidin-1-yl)methyl)pyridin-2-ylamino)-2,2′-dimethylbiphenyl-3-yl)benzo[d]oxazol-5-yl)methyl)pyrrolidine-3-carboxylic acid]
Cc1c(Nc2nccc3cc(CNC[C@H](C)O)cnc23)cccc1-c1cccc(-c2nc3cc(CN4CC[C@@](C)(C(=O)O)C4)cc(C#N)c3o2)c1C [Example 191, (R)-1-((7-cyano-2-(3′-(3-(((S)-2-hydroxypropylamino)methyl)-1,7-naphthyridin-8-ylamino)-2,2′-dimethylbiphenyl-3-yl)benzo[d]oxazol-5-yl)methyl)-3-methylpyrrolidine-3-carboxylic acid]
CCN1CCc2c(nc(C(=O)Nc3cccc(-c4cccc(-c5nc6cc(CN7CC[C@H](C(=O)O)C7)cc(C#N)c6o5)c4C)c3Cl)n2C)C1 [Example 142, (S)-1-((2-(2′-chloro-3′-(5-ethyl-1-methyl-4,5,6,7-tetrahydro-1H-imidazo[4,5-c]pyridine-2-carboxamido)-2-methyl-[1,1′-biphenyl]-3-yl)-7-cyanobenzo[d]oxazol-5-yl)methyl)pyrrolidine-3-carboxylic acid]
CCN1CCc2nc(-c3cccc(-c4cccc(-c5nc6cc(CN7CC[C@@H](C(=O)O)C7)cc(Cl)c6o5)c4C)c3C)sc2C1 [Example 60, (R)-1-((7-chloro-2-(3′-(5-ethyl-4,5,6,7-tetrahydrothiazolo[5,4-c]pyridin-2-yl)-2,2′-dimethyl-[1,1′-biphenyl]-3-yl)benzo[d]oxazol-5-yl)methyl)pyrrolidine-3-carboxylic acid]
Cc1c(-c2nc3cc(CN4CCC(C(=O)O)CC4)cc(C#N)c3o2)cccc1-c1cccc(NC(=O)c2nc3c(n2C)CC(C)NC3)c1Cl (stereo not drawn) [Example 164, 1-((2-(2′-chloro-3′-(1,6-dimethyl-4,5,6,7-tetrahydro-1H-imidazo[4,5-c]pyridine-2-carboxamido)-2-methylbiphenyl-3-yl)-7-cyanobenzo[d]oxazol-5-yl)methyl)piperidine-4-carboxylic acid]
Cc1c(-c2nc3cc(CN4CC[C@@H](O)C4)cc(C#N)c3o2)cccc1-c1cccc(NC(=O)c2nc3c(n2C)CCN(C2CCCC(C(=O)O)CC2)C3)c1Cl (stereo partly drawn) [Example 264, 4-(2-(2-chloro-3′-(7-cyano-5-(((R)-3-hydroxypyrrolidin-1-yl)methyl)benzo[d]oxazol-2-yl)-2′-methylbiphenyl-3-ylcarbamoyl)-1-methyl-6,7-dihydro-1H-imidazo[4,5-c]pyridin-5(4H)-yl)cycloheptane carboxylic acid]
Cc1c(Nc2nccc3cc(CN4CC[C@H](O)C4)cnc23)cccc1-c1cccc(-c2nc3cc(CN4CCCC[C@H]4C(=O)O)cc(Cl)c3o2)c1C [Example 5, (S)-1-((7-chloro-2-(3′-((3-(((S)-3-hydroxypyrrolidin-1-yl)methyl)-1,7-naphthyridin-8-yl)amino)-2,2′-dimethyl-[1,1′-biphenyl]-3-yl)benzo[d]oxazol-5-yl)methyl)piperidine-2-carboxylic acid]
Cc1c(-c2nc3c(o2)CN(C(=O)CN2CCC(O)CC2)C3)cccc1-c1cccc(-c2nc3cc(CN4CC5CC4CC5C(=O)O)cc(C#N)c3o2)c1C (stereo not drawn) [Example 251, 2-((7-cyano-2-(3′-(5-(2-(4-hydroxypiperidin-1-yl)acetyl)-5,6-dihydro-4H-pyrrolo[3,4-d]oxazol-2-yl)-2,2′-dimethyl-[1,1′-biphenyl]-3-yl)benzo[d]oxazol-5-yl)methyl)-2-azabicyclo[2.2.1]heptane-5-carboxylic acid]
Cc1c(Nc2nccc3cc(CN4CC[C@@H](O)C4)cnc23)cccc1-c1cccc(-c2nc3cc(CNC45CCC(C(=O)O)(CC4)C5)cc(C#N)c3o2)c1C [Example 183, (R)-4-((7-cyano-2-(3′-(3-((3-hydroxypyrrolidin-1-yl)methyl)-1,7-naphthyridin-8-ylamino)-2,2′-dimethylbiphenyl-3-yl)benzo [d]oxazol-5-yl)methylamino)bicyclo[2.2.1]heptane-1-carboxylic acid]
Cc1c(-c2nc3cc(CN4CCC(C(=O)O)CC4)cc(C#N)c3o2)cccc1-c1cccc(NC(=O)c2nc3c(n2C)CC(C)N(C)C3)c1Cl (stereo not drawn) [Example 162, 1-((2-(2′-chloro-2-methyl-3′-(1,5,6-trimethyl-4,5,6,7-tetrahydro-1H-imidazo[4,5-c]pyridine-2-carboxamido)biphenyl-3-yl)-7-cyanobenzo[d]oxazol-5-yl)methyl)piperidine-4-carboxylic acid]
CCN1CCc2c(nc(C(=O)Nc3cccc(-c4cccc(-c5nc6cc(CN7CC[C@@H](C(=O)O)C7)cc(C#N)c6o5)c4C)c3Cl)n2C)C1 [Example 143, (R)-1-((2-(2′-chloro-3′-(5-ethyl-1-methyl-4,5,6,7-tetrahydro-1H-imidazo[4,5-c]pyridine-2-carboxamido)-2-methyl-[1,1′-biphenyl]-3-yl)-7-cyanobenzo[d]oxazol-5-yl)methyl)pyrrolidine-3-carboxylic acid]
Cc1c(NC(=O)c2nc3c(n2C)CCN(C[C@H](C)O)C3)cccc1-c1cccc(-c2nc3cc(CN4CC[C@H](C(=O)O)C4)cc(C#N)c3o2)c1C [Example 41, (S)-1-((7-cyano-2-(3′-(5-((S)-2-hydroxypropyl)-1-methyl-4,5,6,7-tetrahydro-1H-imidazo[4,5-c]pyridine-2-carboxamido)-2,2′-dimethylbiphenyl-3-yl)benzo[d]oxazol-5-yl)methyl)pyrrolidine-3-carboxylic acid]
CCN1CCc2cn(-c3cccc(-c4cccc(-c5nc6cc(CN7CC[C@@H](C(=O)O)C7)cc(C#N)c6o5)c4C)c3Cl)nc2C1 [Example 58, (R)-1-((2-(2′-chloro-3′-(6-ethyl-4,5,6,7-tetrahydro-2H-pyrazolo[3,4-c]pyridin-2-yl)-2-methylbiphenyl-3-yl)-7-cyanobenzo[d]oxazol-5-yl)methyl)pyrrolidine-3-carboxylic acid]
Cc1c(-c2nc3cc(CN4CC[C@@](C)(C(=O)O)C4)cc(C#N)c3o2)cccc1-c1cccc(-c2nc3c(s2)CN(C(=O)CN[C@H]2C[C@@H](O)C2)C3)c1C [Example 228, (R)-1-((7-cyano-2-(3′-(5-(2-(cis-3-hydroxycyclobutylamino)acetyl)-5,6-dihydro-4H-pyrrolo[3,4-d]thiazol-2-yl)-2,2′-dimethylbiphenyl-3-yl)benzo[d]oxazol-5-yl)methyl)-3-methylpyrrolidine-3-carboxylic acid]
Cc1c(-c2nc3cc(CNCCO)cc(C#N)c3o2)cccc1-c1cccc(-c2nc3c(s2)CN(C(C)C)CC3)c1C [Example 120, 5-(((2-hydroxyethyl)amino)methyl)-2-(3′-(5-isopropyl-4,5,6,7-tetrahydrothiazolo[5,4-c]pyridin-2-yl)-2,2′-dimethyl-[1,1′-biphenyl]-3-yl)benzo[d]oxazole-7-carbonitrile]
Cc1c(-c2nc3cc(CN4CC[C@@](C)(C(=O)O)C4)cc(C#N)c3o2)cccc1-c1cccc(NC(=O)c2nc3c(n2C)CCN(C[C@@H](C)O)C3)c1Cl [Example 157, (R)-1-((2-(2′-chloro-3′-(5-((R)-2-hydroxypropyl)-1-methyl-4,5,6,7-tetrahydro-1H-imidazo[4,5-c]pyridine-2-carboxamido)-2-methylbiphenyl-3-yl)-7-cyanobenzo[d]oxazol-5-yl)methyl)-3-methylpyrrolidine-3-carboxylic acid]
